The source of these data is patent US5629322A, “Cyclic amidine analogs as inhibitors of nitric oxide synthase” (priority 1995, dated 1997).

One assay has as its system NO synthase. Kind of assay: Assay Protocol for NOS activity: % inhibition at 50 uM (formation of L-[3H]citrulline from L-[3H]arginine). The format is biochemical. The procedure: (§1) Assay Protocol for NOS activity
(§2) NOS activity is measured as the formation of L-[2,3,4,5-^3 H]Citrullinefrom L-[2,3,4,5-^3 H]Arginine. The incubation buffer (100 μL) contained; 100 mM TES, pH 7.5, 5 μM FAD, 5 μM FMN, 10 μM BH4, 0.5 mM NADPH, 0.5 mM DTT, 0.5 mg/mL BSA, 2 mM CaCl2, 10 μg/mL calmodulin (bovine), 1 μM L-Arg, 0.2 μCi L-[2,3,4,5-^3 H]Arg, and the inhibitor in aqueous DMSO (max. 5%). The reaction is initiated by addition of enzyme. Incubations are performed at room temperature for 30 minutes and stopped by the addition of an equal volume of quenching buffer consisting of 200 mM sodium citrate, pH 2.2, 0.02% sodium azide. Reaction products are separated by passing through a cation exchange resin and quantitated as cpm by scintillation counting.

A further assay addresses ncNOS (Homo sapiens, UniProt P29475). The assay can be described thus: biochemical.
The target of a further assay is ecNOS (Homo sapiens, UniProt P29474). The assay can be described thus: NOS activity assay, ecNOS (L-[3H]citrulline formation). The format is biochemical. The method, then: as §1, §2
For the next assay, the target named is iNOS (Homo sapiens, UniProt P35228). Kind of assay: NOS activity assay, iNOS (L-[3H]citrulline formation). The class given is biochemical. The procedure: as §1, §2

pIC50: −log10 of the molar value. Counter-ions that a name gives are not always drawn. Like-named read-outs stand apart in the source and are kept apart here. A value given as a limit tells only on which side of the number the result lay.

ncNOS, sequence (P29475 whole entry): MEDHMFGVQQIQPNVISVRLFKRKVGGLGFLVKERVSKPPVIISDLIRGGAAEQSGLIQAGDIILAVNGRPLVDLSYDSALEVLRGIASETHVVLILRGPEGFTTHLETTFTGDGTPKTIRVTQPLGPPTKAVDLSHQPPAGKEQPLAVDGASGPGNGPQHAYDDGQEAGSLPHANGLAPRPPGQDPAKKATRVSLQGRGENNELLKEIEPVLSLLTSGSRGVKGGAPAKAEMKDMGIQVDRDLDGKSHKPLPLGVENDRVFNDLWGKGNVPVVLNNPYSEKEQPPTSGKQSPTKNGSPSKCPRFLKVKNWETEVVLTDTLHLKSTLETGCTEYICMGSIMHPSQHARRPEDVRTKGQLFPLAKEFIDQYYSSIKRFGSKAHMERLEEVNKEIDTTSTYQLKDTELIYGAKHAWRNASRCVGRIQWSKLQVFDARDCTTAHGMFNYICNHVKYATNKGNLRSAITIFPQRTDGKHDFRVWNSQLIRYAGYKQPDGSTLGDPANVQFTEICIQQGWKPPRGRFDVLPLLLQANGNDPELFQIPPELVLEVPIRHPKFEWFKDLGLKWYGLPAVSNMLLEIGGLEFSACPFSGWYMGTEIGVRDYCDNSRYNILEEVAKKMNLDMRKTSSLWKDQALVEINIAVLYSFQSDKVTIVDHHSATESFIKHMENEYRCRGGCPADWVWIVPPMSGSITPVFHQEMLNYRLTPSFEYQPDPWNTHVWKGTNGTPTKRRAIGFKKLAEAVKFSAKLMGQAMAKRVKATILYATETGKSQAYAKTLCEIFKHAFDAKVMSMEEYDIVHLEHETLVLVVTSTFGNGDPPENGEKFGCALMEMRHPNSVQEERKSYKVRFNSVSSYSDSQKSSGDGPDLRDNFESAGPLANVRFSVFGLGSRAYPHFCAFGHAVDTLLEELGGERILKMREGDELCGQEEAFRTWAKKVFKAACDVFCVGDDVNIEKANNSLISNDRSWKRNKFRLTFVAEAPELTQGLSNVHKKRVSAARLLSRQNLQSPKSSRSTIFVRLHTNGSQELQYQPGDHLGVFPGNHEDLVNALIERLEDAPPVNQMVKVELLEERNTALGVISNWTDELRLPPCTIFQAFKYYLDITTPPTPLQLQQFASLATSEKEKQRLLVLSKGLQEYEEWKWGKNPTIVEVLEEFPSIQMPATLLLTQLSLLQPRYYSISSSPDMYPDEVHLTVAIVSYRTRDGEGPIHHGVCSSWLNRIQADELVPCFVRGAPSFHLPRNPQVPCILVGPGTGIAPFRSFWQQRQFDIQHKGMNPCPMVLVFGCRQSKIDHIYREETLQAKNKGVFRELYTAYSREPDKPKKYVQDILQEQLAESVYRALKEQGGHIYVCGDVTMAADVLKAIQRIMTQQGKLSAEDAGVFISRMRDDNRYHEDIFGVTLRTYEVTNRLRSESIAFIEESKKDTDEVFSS

One may read the % inhibition as the percentage by which the read-out fell short of the control. Lower therefore signals a weak effect. With `N=C1CCCCCN1`, the “% inhibition” value with NO synthase (Table 3) amounted to 96%.
Regarding `N=C1CCCCCCN1`, the “% inhibition” value in the assay on NO synthase (Table 3) is reported as 100%.
Same read-out and setting: then `N=C1CCCCCCCN1`, with 100%.
Regarding `CC1CCC(=N)N1` (centres unmarked) [Table 1: CH3, H, H], the “% inhibition” value in the assay with NO synthase (Table 1) came out at 98%.
With `N=C1CCCN1` [Table 1: H, H, H], the “% inhibition” value with NO synthase (Table 1) stood at 90%.
Take `c1ccc(CNC2=NCCCCC2)cc1` [Table 2: CH2 -phenyl]: the “% inhibition” value with NO synthase (Table 2) came out at 3%.
Regarding `CCNC1=NCCCCC1` [Table 2: CH2 CH3], in the assay with NO synthase (Table 2), the “% inhibition” value is given as 55%.
For `CNC1=NCCCCC1` [Table 2: CH3], the “% inhibition” value in the assay with NO synthase (Table 2) came to 3%.
Same read-out and setting: in the case of `C1CCN=C(NC2CCCCC2)CC1` [Table 2: cyclohexyl] it was 8%.
Broadly, the pIC50 is the IC50 on a negative log10 scale, so that one unit is a factor of ten. Take `N=C1CC[C@@H](CO)N1` [Table 4: H, H, (S)-CH2OH, H, H, 2-Imino-5-(S)-hydroxymethylpyrrolidine hydrochloride]: the pIC50 at ncNOS (Table 4, read-out: IC50 ncNOS) was at least 4.30; on ecNOS (Table 4, read-out: IC50 ecNOS) it was below 4.30; at iNOS (Table 4, read-out: IC50 iNOS), at least 5.00.
For `CCC1CCC(=N)N1` (centres unmarked) [Table 4: H, H, C2H5, H, H] the same measures were at least 5.00, at least 5.00 and at least 4.30.
Consider `CC1CCC(N)=N1` (centres unmarked) [Table 4: H, H, CH3, H, H, 2-Imino-5-methylpyrrolidine hydrochloride], for which the negative logarithm of the IC50 (pIC50) was at least 5.00 against ncNOS; at least 5.00 at ecNOS (Table 4, read-out: IC50 ecNOS); at least 5.00 against iNOS.
Consider `Oc1ccc(CCNC2=NCCC2)cc1O` [Table 4: H, H, H, H, C2 H4 Ph-3,4-(OH)2, 1-Aza-2-((3,4-dihydroxyphenyl)ethyl)amino-1-cyclopentene hydrochloride], for which the pIC50 at ncNOS (Table 4, read-out: IC50 ncNOS) is below 4.30; on ecNOS (Table 4, read-out: IC50 ecNOS), below 4.30; on iNOS (Table 4, read-out: IC50 iNOS), below 4.30.
`NC1=NCCC1` [Table 4: H, H, H, H, H, 1-Aza-2-imino-cyclopentane hydrochloride]: the pIC50 against ncNOS is at least 5.00; at ecNOS, at least 5.00; on iNOS (Table 4, read-out: IC50 iNOS), at least 5.00.
As to `CC(C)C1CN=C(N)C1` (centres unmarked) [Table 4: H, i-C3H7, H, H, H, 2-Imino-4-(2-methyl-ethyl)pyrrolidine hydrochloride], the pIC50 on ncNOS (Table 4, read-out: IC50 ncNOS) is at least 4.30; on ecNOS (Table 4, read-out: IC50 ecNOS), below 4.30; at iNOS (Table 4, read-out: IC50 iNOS) it was at least 5.00.
Take `CCCC1CC(N)=NC1CC` (centres unmarked) [Table 4: H, n-C3H7, C2H5, H, H, 2-Imino-5-ethyl-4-propylpyrrolidine hydrochloride]: the negative-log IC50 (pIC50) is at least 4.30 at ncNOS (Table 4, read-out: IC50 ncNOS); below 4.30 on ecNOS (Table 4, read-out: IC50 ecNOS); at least 4.30 at iNOS (Table 4, read-out: IC50 iNOS).
Consider `CCCC1CC(N)=NC1C` (centres unmarked) [Table 4: H, n-C3H7, CH3, H, H, 2-Imino-5-methyl-4-propylpyrrolidine hydrochloride], for which the negative-log IC50 (pIC50) was at least 4.30 at ncNOS (Table 4, read-out: IC50 ncNOS); below 4.30 on ecNOS (Table 4, read-out: IC50 ecNOS); at least 4.30 at iNOS (Table 4, read-out: IC50 iNOS).
As for `CCCC1CN=C(N)C1` (centres unmarked) [Table 4: H, n-C3H7, H, H, H, 2-Imino-4-propylpyrrolidine hydrochloride], the negative logarithm of the IC50 (pIC50) at ncNOS (Table 4, read-out: IC50 ncNOS) was below 4.30; at ecNOS (Table 4, read-out: IC50 ecNOS) it was below 4.30; on iNOS (Table 4, read-out: IC50 iNOS), at least 4.30.
As to `N=C1NCCC1S` (centres unmarked) [Table 4: SH, H, H, H, H], the negative-log IC50 (pIC50) on ncNOS (Table 4, read-out: IC50 ncNOS) is at least 6.00; at ecNOS (Table 4, read-out: IC50 ecNOS), at least 4.30; on iNOS (Table 4, read-out: IC50 iNOS) it was at least 4.30.
Turning to `NC1=NCCc2ccccc21` [Table 5: C, (CH)4, H, H, H, H], the negative-log IC50 (pIC50) at ncNOS (Table 5, read-out: IC50 ncNOS) is at least 5.00; at ecNOS (Table 5, read-out: IC50 ecNOS) it was at least 4.30; on iNOS (Table 5, read-out: IC50 iNOS), at least 5.00.
For the compound `CC1CNC(=N)C(C)C1` (centres unmarked) [Table 5: CH2, CH3, H, CH3, H, H, H, 2-Imino-3,5-dimethylpiperidine hydrochloride], the pIC50 at ncNOS (Table 5, read-out: IC50 ncNOS) is at least 6.00; at ecNOS (Table 5, read-out: IC50 ecNOS), at least 4.30; on iNOS (Table 5, read-out: IC50 iNOS) it was at least 4.30.
Take `CC1CCCN=C1N` (centres unmarked) [Table 5: CH2, CH3, H, H, H, H, H, 2-Imino-3-methylpiperidine hydrochloride]: the negative-log IC50 (pIC50) at ncNOS (Table 5, read-out: IC50 ncNOS) is at least 6.00; against ecNOS, at least 5.00; against iNOS, at least 5.00.
For the compound `CC1(C)CCC(=N)NC1` [Table 5: CH2, H, H, (CH3)2, H, H, H, 2-Imino-5,5-dimethylpiperidine hydrochloride], the pIC50 at ncNOS (Table 5, read-out: IC50 ncNOS) is at least 5.00; at ecNOS (Table 5, read-out: IC50 ecNOS) it was at least 4.30; at iNOS (Table 5, read-out: IC50 iNOS), at least 5.00.
On to `NC1=Nc2ccccc2CC1` [Table 5: CH2, H, H, (CH)4, H, H, 3,4-Dihydro-2-aminoquinoline hydrochloride], for which the negative logarithm of the IC50 (pIC50) at ncNOS (Table 5, read-out: IC50 ncNOS) is at least 5.00; at ecNOS (Table 5, read-out: IC50 ecNOS), below 4.30; on iNOS (Table 5, read-out: IC50 iNOS), at least 4.30.
For `N=C1CCC(C(F)(F)F)CN1` (centres unmarked) [Table 5: CH2, H, H, CF3, H, H, H, 2-Imino-5-trifluoro-piperidine] the same measures were below 4.30, below 4.30 and at least 5.00.
The corresponding values for `CCCOC1CCC(=N)NC1` (centres unmarked) [Table 5: CH2, H, H, O-n-C3H7, H, H, H, 2-Imino-5-n-propyloxy-piperidine, acetic acid salt] are at least 5.00, at least 5.00 and at least 6.00.
As for `CC1C(=N)NCC2CCCC21` (stereo not drawn) [Table 5: CH, CH3, (CH2)3, H, H, H, 4-Imino-5-cis-methyl-3-azabicyclo[4.3.0]nonane, hydrochloride], the pIC50 is at least 5.00 on ncNOS (Table 5, read-out: IC50 ncNOS); below 4.30 on ecNOS (Table 5, read-out: IC50 ecNOS); at least 5.00 on iNOS (Table 5, read-out: IC50 iNOS).
Take `CO[C@@H]1CNC(=N)C[C@@H]1C` [Table 5: CH, H, (S)CH3, (S)OCH3, H, H, H, hydrochloride]: the negative logarithm of the IC50 (pIC50) on ncNOS (Table 5, read-out: IC50 ncNOS) was at least 6.00; on ecNOS (Table 5, read-out: IC50 ecNOS), at least 6.00; on iNOS (Table 5, read-out: IC50 iNOS), at least 6.00.
In the case of `C[C@H]1CC(=N)NC[C@H]1O` [Table 5: CH, H, (S)CH3, (S)OH, H, H, H, 2-Imino-5(S)-hydroxy-4(S)-methyl-piperidine, hydrochloride], the pIC50 is at least 6.00 on ncNOS (Table 5, read-out: IC50 ncNOS); at least 5.00 on ecNOS (Table 5, read-out: IC50 ecNOS); at least 6.00 on iNOS (Table 5, read-out: IC50 iNOS).
Consider `CC1CNC(=N)CC1C` (centres unmarked) [Table 5: CH, H, CH3, CH3, H, H, H], for which the negative logarithm of the IC50 (pIC50) on ncNOS (Table 5, read-out: IC50 ncNOS) is at least 6.00; at ecNOS (Table 5, read-out: IC50 ecNOS) it was at least 6.00; at iNOS (Table 5, read-out: IC50 iNOS), at least 6.00.
As to `CCCC1CCN=C(N)C1` (centres unmarked) [Table 5: CH, H, n-C3H7, H, H, H, H, 2-Imino-4-propylpiperidine hydrochloride], the negative-log IC50 (pIC50) on ncNOS (Table 5, read-out: IC50 ncNOS) was below 4.30; on ecNOS (Table 5, read-out: IC50 ecNOS) it was below 4.30; at iNOS (Table 5, read-out: IC50 iNOS) it was at least 5.00.
For the compound `CC(C)(C)OC(=O)N1CCNC(=N)C1` [Table 5: N, H, CO2-t-C4H9, H, H, H, H, 4-t-Butoxycarbonyl-2-iminopiperazine hydrochloride], the pIC50 was below 4.30 on ncNOS (Table 5, read-out: IC50 ncNOS); below 4.30 on ecNOS (Table 5, read-out: IC50 ecNOS); at least 4.30 at iNOS (Table 5, read-out: IC50 iNOS).
For the compound `N=C1CNC2CCCCC2N1` (centres unmarked) [Table 5: N, H, H, (CH2)4, H, H], the negative-log IC50 (pIC50) at ncNOS (Table 5, read-out: IC50 ncNOS) was at least 4.30; on ecNOS, below 4.30; at iNOS it was at least 5.00.
Consider `N=C1CNCCN1` [Table 5: N, H, H, H, H, H, H, 2-Iminopiperazine hydrochloride], for which the pIC50 on ncNOS (Table 5, read-out: IC50 ncNOS) is at least 4.30; on ecNOS (Table 5, read-out: IC50 ecNOS) it was below 4.30; at iNOS (Table 5, read-out: IC50 iNOS), at least 4.30.
As to `N=C1CSCCN1` [Table 5: S, H, --, H, H, H, H, 3-Iminothiomorpholine hydrochloride], the pIC50 on ncNOS (Table 5, read-out: IC50 ncNOS) is at least 6.00; on ecNOS (Table 5, read-out: IC50 ecNOS) it was at least 5.00; at iNOS (Table 5, read-out: IC50 iNOS), at least 6.00.
In the case of `N=C1CCCN1` [drawing 15], in the assay with NO synthase (Table 3), the “% inhibition” value amounted to 90%.
In the case of `N=C1CCCCN1` [drawing 16], in the assay with NO synthase (Table 3), the “% inhibition” value is 100%.
